Measured values reported in publication PMC8208785, “Therapeutic efficacy of novel memantine nitrate MN‐08 in animal models of Alzheimer’s disease” (Aging Cell, 2021).
Entries after “also recorded” stand apart in the source; their conditions may differ.

Experiments:
[1] = system: cerebellar granule neurons (CGNs); assay: MTT cell viability, glutamate-induced excitotoxicity in CGNs; assay type: cell-based, rat; details: LY294002 incubated with MN‐08
Protocol: Excessive glutamate‐induced excitotoxicity might cause dysfunctions of cellular pathways, subsequently resulting in synaptic dysfunctions and neuronal loss. To evaluate the neuroprotective effects of MN‐08 against excitotoxicity, cerebellar granule neurons (CGNs) were treated with MN‐08 at the concentrations from 1 to 50 µM or memantine from 1 to 10 μM for 2 h, and then exposed to 100 μM glutamate for 24 h. […] Similarly, in APP/PS1 mice, MN‐08 prevented neuronal loss in the hippocampus by upregulating the expression ratio of Bcl‐2/Bax and downregulating the expression ratio of cleaved Caspase‐3 to Caspase‐3 (Figure S6).
CGNs were prepared from the 8-day-old Sprague–Dawley rats as described in our previous publication (Li et al., 2005). Briefly, animals were anesthetized and sacrificed, and their cerebella were collected. […]
Neurotoxicity was assessed using the tetrazolium salt 3-(4,5-dimethylthiazol-2-yl)-2,5- diphenyltetrazolium bromide dye (MTT) assay as previous publication (Luo et al., 2010). […] Cell viability was evaluated by observing colorimetric changes using a CLARIOstar plus Microplate Reader (BMG Labtech, Ortenberg, Germany) at a test wavelength of 570 nm with 655 nm as a reference wavelength. Data were expressed as a percentage of control cultures.

[2] = system: ERK and PI3K/Akt/GSK3β pathway; assay: Western blotting of p-ERK, p-Akt, p-GSK3β and Bcl-2 in glutamate-challenged CGNs; assay type: cell-based, rat; details: LY294002 incubated with MN‐08
Text: To further characterize the neuroprotection of MN‐08, the level of the key signaling molecules, such as ERK, Akt, and GSK3β, was examined by Western blotting assay. […] Moreover, pre‐treatment with MN‐08 reversed expression of both p‐Akt and p‐GSK3β with the challenge of glutamate. Akt is an important downstream member of PI3K. To further confirm whether the PI3K/Akt pathway was associated with the neuroprotection of MN‐08 against glutamate‐induced excitotoxicity, specific PI3K inhibitor LY294002 was applied and incubated with MN‐08. […] Taken together, MN‐08 might protect against glutamate‐induce cytotoxicity by reversing the dysregulations of ERK pathway and PI3K/Akt/GSK3β pathway.
Western blotting analysis was performed as previously described with minor modifications (Huang, Li, & Nan, 2017). Proteins were extracted from hippocampal tissue and their concentrations determined by the BCA protein assay kit (Fdbio science, Hangzhou, China). The protein (20 μg) was separated on a 12% SDS-PAGE gel and then transferred to PVDF membranes. The membranes were blocked using 5 % nonfat dry milk for 2 h. The protein blots were incubated with the corresponding primary antibodies against p-Akt (#4060, 1:1000, Cell Signaling Technology), Akt (#4685, 1:1000, Cell Signaling Technology), BACE1 (#5606, 1:1000, Cell Signaling Technology), PS1 (#5643, 1:1000, Cell Signaling Technology), p-GSK3β (#5558, 1:1000, Cell Signaling Technology), GSK3β (#12456, 1:1000, Cell Signaling Technology), Bcl-2 (#3498, 1:1000, Cell Signaling Technology), Bax (#5023, 1:1000, Cell Signaling Technology), Cleaved caspase-3 (#9661, 1:1000, Cell Signaling Technology), Caspase-3 (#9662, 1:1000, Cell Signaling Technology), ADAM10 (#14194, 1:1000, Cell Signaling Technology), APP (#ab241592, 1:1000, Abcam), sAPPα (#ab126723, 1:1000, Abcam), NEP (#ab216341, 1:1000, Abcam), Synapsin I (#ab64581, 1:1000, Abcam), Synapsin II (#ab76494, 1:1000, Abcam), NR2A (#ab124913, 1:2000, Abcam), PSD95 (#ab18258, 1:1000, Abcam), Synaptophysin (#ab32127, 1:1000, Abcam), IDE (#ab133561, 1:1000, Abcam), Drebin (#ab178408, 1:1000, Abcam) and Tau-5 (#ab80579, 1:2000, Abcam) overnight at 4°C. After washing 3 times, the membranes were incubated with the respective HRP-conjugated secondary antibody. ECL Western blotting Detection Reagents (Fdbio science, Hangzhou, China) were used to perform Chemiluminescence detection. Quantitative analysis of protein bands was conducted by the Carestream system (Carestream Health, Inc, USA).
CGNs were prepared from the 8-day-old Sprague–Dawley rats as described in our previous publication (Li et al., 2005). Briefly, animals were anesthetized and sacrificed, and their cerebella were collected. Then, the freshly collected cerebella were rinsed in cold Kreb’s buffer-BSA and digested with 0.025 % trypsin incubated in a 37°C for 15 min. The reaction was stopped, and the single cell suspension was obtained through pipetting up and down the sedimentary tissue. CGNs were seeded in basal modified Eagle’s medium (ThermoFisher Scientific, Waltham, MA, USA) supplemented with 10 % fetal bovine serum, 25 mM KCl, 2 mM glutamine and 100 units/mL penicillin/streptomycin at a density of 1.5×10^6 cells/mL. Cytosine arabinoside (10 μM) was added to inhibit the growth of non-neuronal cells at 24 h after seeding. All experiments were carried out after 8 days in vitro. […]

3×Tg‐AD mice = assay: Golgi staining of dendritic spines and Western blotting of synaptic markers in 3×Tg-AD mice; assay type: in vivo; details: donepezil 1.3 mg/kg
Protocol: Triple transgenic 3×Tg‐AD mice were acquired from Jackson Laboratory and fostered in the Shenzhen Center for Disease Control and Prevention (Shenzhen, China). Eight‐month‐old 3×Tg‐AD mice were categorized into six groups: (1) 3×Tg‐AD +Vehicle group; (2) 3×Tg‐AD +MN‐08 (3 mg/kg) group; (3) 3×Tg‐AD +MN‐08 (6 mg/kg) group; (4) 3×Tg‐AD +MN‐08 (12 mg/kg) group; (5) 3×Tg‐AD +Memantine (Mem, 5 mg/kg) group; (6) 3×Tg‐AD +Donepezil (Done, 1.3 mg/kg, once daily) group; (7) Eight‐month‐old B6129SF2/J mice as a control group. MN‐08 and memantine were given twice daily (Done, once daily) by gastric gavage for 4 months from 8 months of age.
Golgi staining was used to determine hippocampal dendritic spine density by a Rapid Golgi Stain Kit (FD Neurotechnologies, Columbia, MD, USA) according to the manufacturer’s instructions. The brain was removed after the behavioral tests and incubated with impregnation solution in the dark at room temperature for 1 week. Impregnation solution was replaced with solution A and stored in the dark for 3 days. Brain sections (100 μm thickness) were placed on gelatin-coated microscope slides and then immersed in ddH2O. Solution B, Solution C, 80 % ethanol and xylene were used for 10 min, sequentially. The dendritic spines of hippocampal neurons were analyzed and counted in a blinded manner from six sections per animal by light microscopy (Olympus, Tokyo, Japan).
Western blotting analysis was performed as previously described with minor modifications (Huang, Li, & Nan, 2017). Proteins were extracted from hippocampal tissue and their concentrations determined by the BCA protein assay kit (Fdbio science, Hangzhou, China). The protein (20 μg) was separated on a 12% SDS-PAGE gel and then transferred to PVDF membranes. The membranes were blocked using 5 % nonfat dry milk for 2 h. […] Quantitative analysis of protein bands was conducted by the Carestream system (Carestream Health, Inc, USA).

| SMILES | effect of LY294002 on the neuroprotective effects of MN‐08 against glutamate (MTT) [1] | effect of LY294002 on upregulation of p‐Akt and p‐GSK3β by MN‐08 [2] | reduction of dendritic spines (hippocampus CA1, Golgi staining) (3×Tg‐AD mice) |
| --- | --- | --- | --- |
| O=c1cc(N2CCOCC2)oc2c(-c3ccccc3)cccc12 [LY294002] | canceled; also recorded: partially abolished | significantly abolished | – |
| COc1cc2c(cc1OC)C(=O)C(CC1CCN(Cc3ccccc3)CC1)C2 (stereo not drawn) [donepezil, reference compound] | – | – | markedly reversed |
